# In patent US9181236B2, “2-spiro-substituted iminothiazines and their mono-and dioxides as bace inhibitors, compositions and their use” (Merck Sharp & Dohme Corp., priority 2011, dated 2015):
# pKi: −log10 of the molar value.
# Columns and labels:
# [1] = molecular target: soluble human BACE1 catalytic domain (Homo sapiens (Human), UniProt P56817); assay: BACE1 HTRF FRET Assay; assay type: biochemical; details: for pKi: Ki calculated from IC50 using the Cheng-Prusoff equation
# [2] = molecular target: purified human autoBACE-2 (Homo sapiens (Human), UniProt Q9Y5Z0); assay: BACE-2 Assay (BACE-HTRF assay); assay type: biochemical; details: Ki calculated from IC50 using the Cheng-Prusoff equation; read-out: BACE2 Ki
# Method: Inhibitor IC50s at purified human autoBACE-2 are determined in a time-resolved endpoint proteolysis assay that measures hydrolysis of the QSY7-[…]-Eu-amide FRET peptide substrate (BACE-HTRF assay). […] DMSO is present at 5% final concentration in the assay. Following laser excitation of sample wells at 320 nm, the fluorescence signal at 620 nm is collected for 400 ms following a 50 μs delay on a RUBYstar HTRF plate reader (BMG Labtechnologies). Raw RFU data is normalized to maximum (1.0 nM BACE/DMSO) and minimum (no enzyme/DMSO) RFU values. […] The Ki values are calculated from the IC50 using the Cheng-Prusoff equation.
# Sequence of purified human autoBACE-2 (Q9Y5Z0 63-473 limits assumed): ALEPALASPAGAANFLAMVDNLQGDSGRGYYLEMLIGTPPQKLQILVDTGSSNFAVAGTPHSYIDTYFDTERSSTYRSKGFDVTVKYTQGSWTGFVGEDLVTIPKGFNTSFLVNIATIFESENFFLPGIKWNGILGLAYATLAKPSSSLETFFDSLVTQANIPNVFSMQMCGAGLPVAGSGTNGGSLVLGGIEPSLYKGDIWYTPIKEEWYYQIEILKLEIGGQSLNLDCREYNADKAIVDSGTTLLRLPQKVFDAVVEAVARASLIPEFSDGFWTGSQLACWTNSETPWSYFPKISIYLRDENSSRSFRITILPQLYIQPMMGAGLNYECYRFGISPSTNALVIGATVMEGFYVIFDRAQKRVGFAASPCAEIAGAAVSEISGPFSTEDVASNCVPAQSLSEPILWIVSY
# Sequence of soluble human BACE1 catalytic domain (P56817 75-416): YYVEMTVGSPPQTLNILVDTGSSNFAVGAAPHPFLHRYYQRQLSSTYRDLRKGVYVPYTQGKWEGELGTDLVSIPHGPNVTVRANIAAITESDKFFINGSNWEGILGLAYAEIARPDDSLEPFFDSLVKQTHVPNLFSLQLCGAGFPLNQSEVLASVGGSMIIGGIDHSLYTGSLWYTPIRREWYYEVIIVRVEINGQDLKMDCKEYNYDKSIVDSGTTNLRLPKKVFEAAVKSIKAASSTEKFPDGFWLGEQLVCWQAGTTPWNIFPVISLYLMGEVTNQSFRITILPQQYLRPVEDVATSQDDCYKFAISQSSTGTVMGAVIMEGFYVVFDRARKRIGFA
SMILES,pKi [1],pKi [2],inhibition at 10 µM ([1]; read-out: BACE1 % Inh. at 10 μM)
C[C@@]1(c2sc(-c3ccnc(-c4ccsc4)c3)cc2Cl)CS(=O)(=O)[C@@]2(CCOC2)C(=N)N1 [Example 63n],6.37,> 7.70,
COc1cccc2cc(-c3cc(Cl)c([C@]4(C)CS(=O)(=O)C5(CC5)C(=N)N4)s3)[nH]c12 [Example 64],8.00,9.00,
C[C@@]1(c2sc(-c3cncc(C#N)c3)cc2Cl)CS(=O)(=O)C2(CC2)C(=N)N1 [Example 65],6.97,> 7.30,
C[C@@]1(c2sc(-c3cccc(-c4nnco4)c3)cc2Cl)CS(=O)(=O)C2(CC2)C(=N)N1 [Example 65a],7.96,> 7.30,
C[C@@]1(c2cc(NC(=O)c3ccc(F)cn3)ccc2F)CS(=O)(=O)C2(CC(O)C2)C(=N)N1 (stereo partly drawn) [Example 74],7.66,8.42,
C[C@@]1(c2cc(NC(=O)c3ccc(F)cn3)ccc2F)CS(=O)(=O)C2(CC(O)C2)C(=N)N1 (stereo partly drawn) [Example 75],7.90,8.77,
C[C@@]1(c2sc(C#CC3(c4ccccc4)CCCC3)cc2Cl)CS(=O)(=O)C2(CCC2)C(=N)N1 [Example 77],5.59,> 7.30,
CC(C)(C)C#Cc1cc(Cl)c([C@]2(C)CS(=O)(=O)C3(CCC3)C(=N)N2)s1 [Example 77a],6.78,> 7.70,
C[C@@]1(c2sc(C#CC3CCCC3)cc2Cl)CS(=O)(=O)C2(CCC2)C(=N)N1 [Example 77b],6.96,> 7.30,
C[C@@]1(c2sc(C#CCc3cc(F)c(F)c(F)c3)cc2Cl)CS(=O)(=O)C2(CCC2)C(=N)N1 [Example 78],,> 7.70,17%
CCc1cccc(NC(=O)c2cc(Cl)c([C@]3(C)CS(=O)(=O)C4(CC4)C(=N)N3)s2)n1 [Example 79],7.06,> 7.70,

# The remaining lines, values ahead:
pKi [1],pKi [2],inhibition at 10 µM ([1]; read-out: BACE1 % Inh. at 10 μM),SMILES
7.13,> 7.70,,COc1cccc(NC(=O)c2cc(Cl)c([C@]3(C)CS(=O)(=O)C4(CC4)C(=N)N3)s2)n1 [Example 79a]
7.77,8.40,,C[C@@]1(c2sc(C(=O)Nc3cccc(Cl)n3)cc2Cl)CS(=O)(=O)C2(CC2)C(=N)N1 [Example 79b]
6.64,> 7.30,,C[C@@]1(c2sc(C(=O)Nc3cccc(F)n3)cc2Cl)CS(=O)(=O)C2(CC2)C(=N)N1 [Example 79c]
7.52,> 7.70,,Cc1cccc(NC(=O)c2cc(Cl)c([C@]3(C)CS(=O)(=O)C4(CC4)C(=N)N3)s2)n1 [Example 79d]
